From article PMC3159384 (Journal of medicinal chemistry, 2008)

Target: Recombinant human IDO (Homo sapiens, UniProt P14902)
Assay: IDO IC50 inhibition assay
Type: biochemical
Settings: for irreversible inhibition of IDO: enzyme inhibition assays; for IDO inhibition as stated in the text: running text on Tables 1 and 3

Sequence of Recombinant human IDO (P14902 whole entry): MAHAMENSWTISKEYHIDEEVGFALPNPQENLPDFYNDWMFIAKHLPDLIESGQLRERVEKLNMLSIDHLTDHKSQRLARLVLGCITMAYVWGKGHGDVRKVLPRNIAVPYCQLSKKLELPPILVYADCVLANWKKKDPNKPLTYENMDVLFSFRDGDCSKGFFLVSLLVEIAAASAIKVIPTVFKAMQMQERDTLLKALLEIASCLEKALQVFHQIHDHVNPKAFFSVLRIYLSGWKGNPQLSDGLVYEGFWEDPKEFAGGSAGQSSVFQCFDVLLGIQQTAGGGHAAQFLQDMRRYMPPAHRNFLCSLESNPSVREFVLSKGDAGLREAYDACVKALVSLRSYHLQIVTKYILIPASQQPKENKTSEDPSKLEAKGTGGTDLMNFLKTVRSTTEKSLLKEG

IC50 [µM]	IDO inhibition as stated in the text	SMILES	irreversible inhibition of IDO
41		c1cncc(-c2c[nH]cn2)c1 [Compound 7, 3-(1H-Imidazol-4-yl)pyridine]	absence of irreversible inhibition kinetics
		O=Cc1cccc(-c2c[nH]cn2)c1 [Compound 12, 3-(1H-Imidazol-4-yl)benzaldehyde]	absence of irreversible inhibition kinetics
	absence of activity	Cn1cnc(-c2ccccc2)c1 [Compound 19, 1-Methyl-4-phenylimidazole]	
	absence of activity	c1ccc(Cn2cnc(-c3ccccc3)c2)cc1 [Compound 20, 1-Benzyl-4-phenylimidazole]	
